{"source": "patent EP4682141A1", "about": "“TRICYCLIC COMPOUND” (ONO Pharmaceutical Co., Ltd., priority 2023, dated 2024)", "key": {"diabetes model rat": {"tested_on": "diabetes model rat", "test": "inhibitory effect on the amount of albumin excreted in urine in diabetes model rat", "assay_type": "in vivo, SDT Fatty rats", "conditions": "urine collected for 24 hours, urine albumin/urine creatinine ratio", "experimental": "Male SDT Fatty rats aged 6 weeks (CLEA Japan) were purchased and preliminarily bred for 1 week or more. Experiments were performed at 8 to 16 weeks of age. The animals were fed ad libitum with solid feed CRF-1 (Oriental Yeast) and watered ad libitum.\nAnimals were housed in metabolic cages 2 days before test substance administration, and urine was collected for 24 hours. On the day before administration of the test substance, urine albumin and urine creatinine were measured, and grouping was performed by a stratification randomization method based on the urine albumin/urine creatinine ratio (ACR) and the average value of body weights for each group.\nThe compounds (test substances) of Examples 9-5, 10, 11, 12, 25-7 and 32, and water for injection (Otsuka Pharmaceutical) as a vehicle were orally administered once at 5 mL/kg. The administration dose is described in Table 3.\nFor evaluation of the amount of albumin excreted in urine of each animal, a urine albumin/urine creatinine ratio (ACR) was measured. After administration of the test substance, the animals were housed in metabolic cages, and urine was collected for 24 hours. Each concentration of urine albumin and urine creatinine was measured using an automatic analyzer 7180 (Hitachi High-Tech), and ACR was calculated by dividing the urine albumin concentration by the urine creatinine concentration."}, "[1]": {"tested_on": "diabetic renal disease model rat", "test": "in vivo drug efficacy in diabetic renal disease model rat (single kidney removal, saline)", "parameters": "species or system SDT.Cg-Leprfa/JttJcl (SDT-fatty rat)", "conditions": "8 weeks after the start of administration", "experimental": "A diabetic renal disease model was created by extracting the unilateral kidneys of male SDT.Cg-Leprfa/JttJcl (SDT-fatty/Jcl, CLEA Japan) rats, a type 2 diabetes model, and then giving saline. The in vivo drug efficacy of the present compound on diabetic renal disease was evaluated in this model.\nMale SDT.Cg-Leprfa/JttJcl (SDT-fatty rat) aged 4 weeks was purchased from CLEA Japan, and subjected to experiments. The animals were fed ad libitum with Purina5008 (Japan SLC) from the time of arrival, and watered ad libitum. Water was given from the arrival and until 1 week from single kidney removal, and a 0.2 w/v% NaCl solution was given 1 week after single kidney removal.\nAfter acclimation breeding, the body weight was measured, and buprenorphine was subcutaneously administered at a dose of 0.01 mg/kg under inhalation anesthesia with isoflurane (Mayran). After removing hair from the right abdomen of the rat, the right abdomen was disinfected with ethanol and isodine for disinfection and incised to expose the right kidney. The renal artery and vein was ligated with a suture to stop the blood flow, the right kidney was totally removed, and the incision was sutured. The following day, analgesic buprenorphine was administered subcutaneously at a dose of 0.01 mg/kg.\nGrouping was performed 3 weeks after single kidney removal. The mice were divided into groups so that the average of the above parameters was almost equal between the groups on the basis of body weight, serum urea nitrogen (BUN), serum creatinine (S-CRE), serum total cholesterol (T-CHO), blood glucose level (GLU), neutral fat (TG), urinary protein (U-TP), urinary albumin (U-ALB), and creatinine clearance (CCr).\nAll of the compounds of Examples 25-7, 10, 11 and 12 were orally administered once a day for 8 weeks in combination with losartan (30 mg/kg), a renin angiotensin system inhibitor, and canagliflozin (10 mg/kg), a glucose co-transporter inhibitor. The compounds of Examples 25-7, 10, 11 and 12, and losartan were each dissolved in water for injection (Otsuka Pharmaceutical), and canagliflozin was suspended in a 0.5% methyl cellulose solution (Fujifilm Wako Pure Chemical Corporation) to prepare an administration solution. In the Control-1 group, water for injection which is a vehicle of losartan or the compound of Examples 25-7, 10, 11 or 12 was orally administered at 5 mL/kg, and a 0.5% methylcellulose solution which is a vehicle of canagliflozin was orally administered at 2.5 mL/kg once a day for 8 weeks. In the Control-2 group, losartan (30 mg/kg) dissolved in water for injection was orally administered at an administration volume of 2.5 mL/kg, canagliflozin (10 mg/kg) suspended in a 0.5% methyl cellulose solution was orally administered at an administration volume of 2.5 mL/kg, and water for injection which is a vehicle of the compounds of Examples 25-7, 10, 11 and 12 was orally administered at an administration volume of 2.5 mL/kg once a day for 8 weeks. The administration dose is described in Table 8.\nBlood was collected by puncturing the tail vein of the rat with an injection needle. Blood was collected in a tube for serum separation (BD Microtainer) and centrifuged to obtain serum. Urine was collected for 24 hours in a metabolic cage for rat under conditions in which a solid feed and water can be freely taken. The obtained urine sample was centrifuged, and the supernatant was subjected to measurement. The concentrations of BUN, S-CRE, T-CHO, TG, U-ALB, U-TP, GLU and U-CRE were measured by an automatic analyzer Hitachi 7180 (Hitachi High-Tech)."}, "[2]": {"tested_on": "Alport syndrome model mice", "test": "in vivo drug efficacy in Alport syndrome model mice", "parameters": "species or system COL4A5 homozygote knockout mice", "conditions": "16 weeks after the start of administration", "experimental": "The in vivo drug efficacy of the present compound on Alport syndrome was evaluated using COL4A5 (causative gene of Alport syndrome) knockout mice.\nMale wild-type mice and female COL4A5 hetero knockout mice were naturally crossed to obtain offspring. Genotypes of the offspring were confirmed and male COL4A5 homozygote knockout mice were obtained.\nThe obtained animals were fed ad libitum with CE-2 (CLEA Japan), and watered ad libitum.\nThe mice were divided into groups using a statistical analysis system EXSUS10.0 so that the body weight and the urine albumin/urine creatinine value at the time of 6 weeks of age were almost uniform in each group.\nThe test substance and water for injection (Otsuka Pharmaceutical) as a vehicle were orally administered at 10 mL/kg once a day for 17 weeks.\nThe Control-3 group was orally administered water for injection at 10 mL/kg once a day for 17 weeks. In the Control-4 group, water for injection and an administration solution of irbesartan which is a renin angiotensin system inhibitor were mixed in equal amounts at 5 mL/kg each, and orally administered once a day for 17 weeks.\nThe administration dose is described in Table 11.\nBlood collection was performed by cutting the tail vein of the mice a little with a razor and using a hematocrit capillary. Blood was centrifuged to obtain plasma. Urine was collected for about 16 hours in a metabolic cage for mouse under conditions in which a solid feed and water can be freely taken. The obtained urine sample was centrifuged, and the supernatant was subjected to measurement. Urine albumin (U-ALB) and urine creatinine (U-CRE) concentrations were measured by an automatic analyzer Hitachi 7180 (Hitachi High-Tech), and the creatinine concentration in plasma was measured using LabAssay Creatinine (Fujifilm Wako Shibayagi)."}}}
{"compound": "Cc1c(C(=O)O)ccc2c1O[C@H]1C[C@@H](O)[C@H](/C=C/C[C@@](C)(O)CCCC(F)(F)F)[C@H]1CC2", "note": "[Example 12, (1R,2R,3aS,10aR)-2-hydroxy-5-methyl-1-[(1E,4S)-8,8,8-trifluoro-4-hydroxy-4-methyl-1-octen-1-yl]-2,3,3a,9,10,10a-hexahydro-1H-benzo[b]cyclopenta[f]oxepine-6-carboxylic acid]", "values": [{"measurement": "ACR mean", "setting": "diabetes model rat; 0.01 mg/kg orally once", "result": 4602.3, "unit": "µg/mg"}, {"measurement": "ACR mean", "setting": "diabetes model rat; 0.03 mg/kg orally once", "result": 3887.3, "unit": "µg/mg"}, {"measurement": "Serum creatinine mean", "setting": "[1]; 0.01 mg/kg orally once a day for 8 weeks in combination with losartan (30 mg/kg) and canagliflozin (10 mg/kg)", "result": 0.51, "unit": "mg/dL"}, {"measurement": "Serum creatinine mean", "setting": "[1]; 0.03 mg/kg orally once a day for 8 weeks in combination with losartan (30 mg/kg) and canagliflozin (10 mg/kg)", "result": 0.45, "unit": "mg/dL"}, {"measurement": "Plasma creatinine mean", "setting": "[2]; 1 mg/kg orally once a day for 17 weeks, concomitant drug Irbesartan (50 mg/kg)", "result": 0.709, "unit": "mg/dL"}, {"measurement": "Plasma creatinine mean", "setting": "[2]; 3 mg/kg orally once a day for 17 weeks, concomitant drug cell empty", "result": 0.722, "unit": "mg/dL"}]}
{"compound": "CC(C)(c1ccccc1)C(O)/C=C/[C@H]1CC[C@@H]2Oc3c(ccc(C(=O)O)c3F)CC[C@@H]21", "note": "(stereo partly drawn) [Example 25-7, (1R,3aS,10aR)-5-fluoro-1-[(1E,3ξ)-3-hydroxy-4-methyl-4-phenyl-1-penten-1-yl]-2,3,3a,9,10,10a-hexahydro-1H-benzo[b]cyclopenta[f]oxepine-6-carboxylic acid]", "values": [{"measurement": "ACR mean", "setting": "diabetes model rat; 0.003 mg/kg orally once", "result": 3217.6, "unit": "µg/mg"}, {"measurement": "ACR mean", "setting": "diabetes model rat; 0.01 mg/kg orally once", "result": 2331.6, "unit": "µg/mg"}, {"measurement": "Serum creatinine mean", "setting": "[1]; 0.1 mg/kg orally once a day for 8 weeks in combination with losartan (30 mg/kg) and canagliflozin (10 mg/kg)", "result": 0.45, "unit": "mg/dL"}, {"measurement": "Plasma creatinine mean", "setting": "[2]; 0.1 mg/kg orally once a day for 17 weeks, single agent", "result": 0.758, "unit": "mg/dL"}, {"measurement": "Plasma creatinine mean", "setting": "[2]; 0.3 mg/kg orally once a day for 17 weeks, single agent", "result": 0.628, "unit": "mg/dL"}]}
